Assay [1] concerns the target T1, Amine oxidase [flavin-containing] B (Homo sapiens, UniProt P27338).
T1 sequence (P27338 whole entry): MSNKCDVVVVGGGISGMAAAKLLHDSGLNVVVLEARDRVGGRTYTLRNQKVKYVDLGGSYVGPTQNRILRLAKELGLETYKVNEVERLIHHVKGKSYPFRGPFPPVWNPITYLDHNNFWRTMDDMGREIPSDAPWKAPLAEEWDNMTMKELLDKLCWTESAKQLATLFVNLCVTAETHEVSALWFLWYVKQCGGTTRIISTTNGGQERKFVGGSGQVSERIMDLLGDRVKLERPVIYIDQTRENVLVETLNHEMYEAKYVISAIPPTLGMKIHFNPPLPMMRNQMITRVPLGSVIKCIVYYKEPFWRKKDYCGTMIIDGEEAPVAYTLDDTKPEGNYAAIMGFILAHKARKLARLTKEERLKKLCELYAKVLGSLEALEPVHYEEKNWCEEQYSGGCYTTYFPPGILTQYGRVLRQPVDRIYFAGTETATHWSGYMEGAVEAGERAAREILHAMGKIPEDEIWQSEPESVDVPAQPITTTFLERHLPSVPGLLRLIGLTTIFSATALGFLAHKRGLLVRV
Kind of assay: Binding affinity to MAOB (unknown origin) using 7-(3-amino-propoxy)-coumarin as substrate after 3 hr by spectrofluorometric analysis.

The target of assay [2] is T2, Amine oxidase [flavin-containing] A (Homo sapiens, UniProt P21397).
T2 sequence (P21397 whole entry): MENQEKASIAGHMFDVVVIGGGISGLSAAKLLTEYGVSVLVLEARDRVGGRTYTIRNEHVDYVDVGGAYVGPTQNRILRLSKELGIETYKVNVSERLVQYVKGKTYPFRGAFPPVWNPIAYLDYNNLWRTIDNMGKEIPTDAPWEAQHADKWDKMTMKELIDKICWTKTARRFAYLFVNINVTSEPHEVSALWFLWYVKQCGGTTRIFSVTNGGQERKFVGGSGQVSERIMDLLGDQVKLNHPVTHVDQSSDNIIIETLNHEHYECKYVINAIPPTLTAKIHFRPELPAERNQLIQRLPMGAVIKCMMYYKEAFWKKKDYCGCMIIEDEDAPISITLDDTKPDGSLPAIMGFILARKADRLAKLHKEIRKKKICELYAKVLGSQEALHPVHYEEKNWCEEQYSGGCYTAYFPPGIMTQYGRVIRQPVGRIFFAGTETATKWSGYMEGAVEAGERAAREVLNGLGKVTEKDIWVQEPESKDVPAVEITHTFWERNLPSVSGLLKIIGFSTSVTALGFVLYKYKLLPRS
As to the kind of experiment: Binding affinity to MAOA (unknown origin) using 7-(3-amino-propoxy)-coumarin as substrate after 3 hr by spectrofluorometric analysis.

This passage reports IC50 results from ChEMBL document CHEMBL3044909, “Design, synthesis, and evaluation of an activity-based probe for cellular imaging of monoamine oxidases” (Med Chem Res, 2012).

Usually IC50 stands for the concentration that gives 50% inhibition. Low readings indicate greater potency in that assay, high ones weaker potency in that assay.

The structures appear in SMILES notation.

Consider `NCCCCCCNCC(N)=O`, for which the IC50 was 79.5 µM in assay [1] and 8.6 µM in assay [2].
As for `CC(C)(C)OC(=O)NCCCCCCNCC(N)=O`, the IC50 was 54.3 µM in assay [1] and 5.7 µM in assay [2].
